In patent US12031897B2, “Target-locking single-molecule nanoscopy” (Memorial Sloan Kettering Cancer Center, priority 2019, dated 2024):

Experiments:
[1] = system: SiR-Rpb1 (Pol II) in the nucleus of U2-OS cells; test: SiR-Rpb1 FRAP in the nucleus of clone 5 cells; format: cell-based, human; settings: after ~30-40 minutes incubation with 10 μM Flavopiridol
Text: Live cell imaging experiments (SiR-Rpb1 FRAP). For SiR-Rpb1 FRAP experiments, time lapse images were acquired at 1 fps at a focal point adjusted at the mid-plane of the nucleus. To bleach molecules at a spot in the nucleus, an iris was used to block all but a small circle in the center of the excitation beam, the dynamic diffuser was removed and ˜[…] 642 nm laser power was applied for ˜10 seconds. Then, the 642 nm laser power was reduced to ˜7 W/μm2, the diffuser was put back in the optical path (resulting in additional drop in the power reaching the sample), the iris was removed and time-lapse acquisition continued. The recovery trace of SiR-Rpb1 at the bleached spot was corrected for photobleaching using the intensity of nearby (non-photobleached) regions in the nucleus.
Quantification of signal (S) and immobile background (Bi) at the transcription site. […] This behavior reflects gradual photobleaching of Pol II molecules residing within the excitation volume during the measurement and a constant background of molecules rapidly diffusing in and out. […] The Bi/Bd ratio is also consistent with: (i) Fluorescence Recovery After Photobleaching (FRAP) measurements at random nuclear locations (FIGS. 11K, 11L), showing that ˜40% of total Pol II is immobile (recovery time ˜20 min) and likely transcriptionally engaged; (ii) previous GFP-Pol II FRAP results in a related system.

[2] = system: Pol II (FLAG-SNAP-Rpb1) at the Pou5f1 locus; test: ChIP-qPCR of Pol II at the Pou5f1 locus after flavopiridol treatment (mESCs); format: cell-based, mouse; settings: 10 μM flavopiridol; by the 5-minute and 12.5-minute time points respectively
Protocol: mESCs. Confluent 15 cm dishes (˜10×10^6 OMG SNAP-Rpb1 clone 3 cells) were treated with 10 μM Flavopiridol or DMSO for the indicated times. Methanol-free formaldehyde (Thermo Fisher) was then directly added to the media to 1% v/v final concentration, and dishes were immediately placed on a rotator/shaker for 10 min at RT. Formaldehyde was quenched with 125 mM glycine for 5 min at RT, and cells were scraped and collected with centrifugation (800×g, 5 min at 4° C.) and washed twice with cold PBS. Cells were lysed with SDS lysis buffer (50 mM Tris-HCl pH 8, 10 mM EDTA, 1% SDS) containing protease inhibitors, and placed on ice for 10 min. Volume equivalent to 2×10^6 cells was sonicated to shear the chromatin (Branson SFX 150), and cleared using centrifugation (12,000 g, 10 min at 4° C.). The supernatant was diluted 1:10 in dilution buffer (0.01% SDS, 1.1% Triton X-100, 1.2 mM EDTA, 16.7 mM Tris-HCl pH 8, 167 mM NaCl)+protease inhibitors, pre-cleared using magnetic Protein G beads (Thermo Fisher Scientific 10003 D), for ˜2 hr at 4° C., cleared by separating the beads with a magnet, and 2% of the pre-cleared supernatant was kept at −20° C. as input. […] Eluted chromatin was analyzed with qPCR, using primer pairs specific for different Pou5f1/Oct4 regions.

CN1CC[C@H](c2c(O)cc(O)c3c(=O)cc(-c4ccccc4Cl)oc23)[C@H](O)C1 [flavopiridol]
slow-recovering immobile Pol II population (FRAP) ([1]; ~40% in absence of Flavopiridol): 10-15%
fast FRAP recovery of SiR-Rpb1 ([1]; ~60% in absence): 85-90%
Pol II ChIP signal at Pou5f1 gene body and 3'UTR regions [2]: significant and near-complete losses
